This is an account of results in patent US20260335282A1, “NOVEL 3-ARYLIDENE-2-INDOLINONE DERIVATIVES FOR THERAPEUTIC USE” (ISTANBUL UNIVERSITESI REKTORLUGU, priority 2022, published 2026).

“And” between values parts separate entries of the source, which are not always exact repeats. Equal values may be shown once. “Also recorded” adds a separate entry of the source. Read-outs that look alike come from different tables or passages of the source.

What all share (assay type): cell-based, human
For one assay, the system named is MCF-7 cells. In words: MTT cytotoxicity, breast cancer cells MCF-7. Particulars: MTT. In short, it runs like this: (§1)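 Cells exposed to compounds at 0.1, 1, 5 and 10 μM (DMSO vehicle-matched controls) for 48 and/or 72 h, then MTT 4 h; formazan in DMSO read at 570/630 nm. Viability as % of control; IC50 from dose-response curves. Healthy cells tested at 10-fold the cancer-cell IC50 concentration.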

A further assay concerns MDA-MB-231 cells. Kind of assay: MTT cytotoxicity, breast cancer cells MDA-MB-231. Particulars: MTT, no * mark (incubation time not given). The method in brief:
as §1

The test system of another assay is A498 cells. In words: MTT cytotoxicity, kidney cancer cells A498. To be noted: for selectivity index: MCF-10F/Beas2b vs A498. In short, it runs like this: as §1
The test system of the next assay is MCF-10F/Beas2b cells. In words: MTT cytotoxicity, healthy cells MCF-10F/Beas2b. To be noted: cancer line not given; for Selectivite Index (SI), MCF-10F/Beas2b (Table 1): MCF-10F/Beas2b vs breast or kidney cancer cells; for Selectivite Index, MCF-10F/Beas2b (Table 2): MCF-10F/Beas2b vs colon or pancreas cancer cells. In short, it runs like this:
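Following seeding and next-day dosing at 0.1, 1, 5 and 10 μM, plates incubate 48 and/or 72 h. MTT is then applied for 4 h and dissolved crystals measured at 570 nm (630 nm reference); cell-free compound+MTT wells control for interference, and IC50 is calculated per compound.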

A further assay relates to HCT-116 cells. In words: MTT cytotoxicity, colon cancer cells HCT-116. In short, it runs like this: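 Cells were seeded at 5000 per well and treated next day with compound at 0.1, 1, 5 and 10 μM (final) for 48 and/or 72 h, with matched DMSO controls. MTT was added for 4 h and formazan was dissolved in DMSO and read at 570/630 nm. % viability against control gave IC50 from dose-response curves.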

Assay [1] relates to general tyrosine kinase activity in MIA PaCa-2 pancreas cancer cells. In words: General tyrosine kinase activity (ELISA) in MIAPaCa-2 cells. To be noted: 72 hours, IC50 concentration. How it is done: Takara Universal Tyrosine Kinase Assay Kit is used to determine the effects of 11 2-indolinone compounds (Y1, Y2, Y3, Y4, Y5, Y8, […], […], Y21, Y23, 20C, 22C) on general tyrosine kinase activity in cancer cells. Cells are seeded in 6-well plates (4.10^5 cells/well) and the IC50 concentration of each selected molecule is performed to the cells for 48 or 72 hours. Cells in the control group are incubated with medium only. At the end of the incubation period, the cells in each well are washed with PBS and cells are removed from the wells using a cell scraper via 1 ml of the extraction buffer in the kit. The cell lysate is transferred to ependorf tubes and centrifuged at 10.000 g for 10 minutes at +4° C. and the supernatant is used as a sample for activity determination. After the extracts obtained from the control and experimental groups are diluted 1:25, 40 μl extracts is transferred to two wells in the 96-well plate in the kit. In addition, the standard solution in the kit is diluted according to the kit instructions and each concentration is transferred 40 μl into three wells. 10 μl of 40 mM ATP-2Na solution is added to all wells and the plate is incubated at 37° C. for 30 minutes. After incubation, all wells are washed 4 times with wash buffer. 100 μl of blocking solution is added to each well and incubated again at 37° C. for 30 minutes. After incubation, the liquid in the wells is discarded and 50 μl of anti-phosphotyrosine-HRP solution is added to each well and incubated at 37° C. for 30 minutes. The wells are washed again four times with wash buffer and 100 μl of HRP-substrate solution (TMBZ) is added to each well and incubated at 37° C. for 15 minutes. The reaction is finished by adding 100 μl of stop solution to each well and the optical density in each well is measured at 405 nm with a microplate reader (BioTek, USA). The tyrosine kinase activity in each sample is calculated from the standard curve obtained from the absorbance values of the standard solutions with the kit (Chan W Y, Lau P M, Yeung K W, Kong S K. The second generation tyrosine kinase inhibitor dasatinib induced eryptosis in human erythrocytes—An in vitro study. Toxicol Lett. 2018; 295:10-21). This activity is normalized compared to the control group by dividing by the amount of protein in each sample.
The effects of 11 2-indolinone compounds (Y1, Y2, Y3, Y4, Y5, Y8, Y14, Y21, Y23, 20C and 22C) having the structure of formula (5), which are prominent with their cytotoxicity in A498, MIAPaCa-2 and HCT-116 cancer cell lines and nontoxic properties in healthy cells, on general tyrosine kinase activity in cancer cells are determined.

Setting [2] is: no * mark (incubation time not specified).
The mark [3] stands for this setting: read-out: IC50, MDA-MB-231 (breast).
The mark [4] stands for this setting: MTT, no * mark (incubation time not specified).

As a reminder, the IC50 is the point on the concentration scale where inhibition reaches its midpoint. `Cc1ccc2c(c1)/C(=C/c1c[nH]c3ccccc13)C(=O)N2Cc1ccccc1` [Y3]: the IC50 was 4.75 µM in the assay on MCF-7 cells (Homo sapiens, MCF7, no * mark (incubation time not given)); 3.57 µM in the assay on MDA-MB-231 cells (Homo sapiens, MDA-MB-231, read-out: IC50, MDA-MB-231 (breast)); 0.87 µM with A498 cells (Homo sapiens, A498, MTT, no * mark (incubation time not given)); 2.05 µM in the assay with HCT-116 cells (Homo sapiens, HCT-116, no * mark (incubation time not given)). The same compound showed a selectivity index with A498 cells of more than 11. The “Selectivite Index (SI), MCF-10F/Beas2b (Table 1)” value in the assay with MCF-10F/Beas2b cells was more than 11.49. Also, the “Selectivite Index, MCF-10F/Beas2b (Table 2)” value in the assay with MCF-10F/Beas2b cells is listed as more than 76.92. For the same compound, the “general tyrosine kinase activity compared to control” value in assay [1] is “significantly decreased; also recorded: decreased the general tyrosine kinase activity”.
Take `O=C1/C(=C\c2c[nH]c3ccccc23)c2cc(OC(F)(F)F)ccc2N1Cc1ccccc1` [Y4]: the IC50 in the assay on MCF-7 cells (setting [2]) was more than 10 µM; with MDA-MB-231 cells (setting [3]) it was more than 10 µM; in the assay on A498 cells (setting [4]), 4.23 µM; in the assay with HCT-116 cells (setting [2]), 0.57 µM. Also, the “Selectivite Index, MCF-10F/Beas2b (Table 2)” value in the assay on MCF-10F/Beas2b cells was > 17.54 and > 18.87. Moreover, the “general tyrosine kinase activity compared to control” value in assay [1] is “significantly decreased; also recorded: decreased the general tyrosine kinase activity”.
Turning to `O=C1/C(=C\c2c[nH]c3ccccc23)c2ccccc2N1Cc1ccccc1` [Y1], the IC50 turned out to be 6.34 µM in the assay on MCF-7 cells (setting [2]), 9.82 µM with MDA-MB-231 cells (setting [3]), 4.11 µM in the assay with A498 cells (setting [4]) and 2.64 µM with HCT-116 cells (setting [2]). For the same compound, the “Selectivite Index, MCF-10F/Beas2b (Table 2)” value in the assay with MCF-10F/Beas2b cells is on record as more than 23.25. Further, the “general tyrosine kinase activity compared to control” value in assay [1] is listed as “significantly decreased; also recorded: decreased the general tyrosine kinase activity”.
On to `Cc1ccc2c(c1)/C(=C/c1c[nH]c3ccccc13)C(=O)N2Cc1cccc(F)c1` [Y8], for which the IC50 stood at 5.79 µM with MCF-7 cells (setting [2]), 7.36 µM in the assay with MDA-MB-231 cells (setting [3]), 0.93 µM with A498 cells (setting [4]) and 1.21 µM in the assay with HCT-116 cells (setting [2]). In the assay with A498 cells, this compound showed a selectivity index of more than 11. Moreover, in the assay on MCF-10F/Beas2b cells, the “Selectivite Index (SI), MCF-10F/Beas2b (Table 1)” value is given as more than 10.75. Further, in the assay with MCF-10F/Beas2b cells, the “Selectivite Index, MCF-10F/Beas2b (Table 2)” value is on record as more than 18.52. In assay [1], the “general tyrosine kinase activity compared to control” value is on record as “significantly decreased; also recorded: decreased the general tyrosine kinase activity”.
